How the values were obtained:
[1] = target: T1, human histamine H3 receptor (Homo sapiens, UniProt Q9Y5N1); test: Human histamine H3 receptor binding assay, [3H](R)-α-methylhistamine displacement; conditions: SK-N-MC cell homogenates expressing hH3R; 0.5 nM [3H](R)-α-methylhistamine; mean ± SEM of three experiments
T1 construct: expressed in transfected cells; host or cells: SK-N-MC cells
Protocol: Homogenates of SK–N–MC cells expressing human histamine H3 receptors (hH3Rs) were used to determine affinity values of the new compounds in radioligand displacement studies according to Lovenberg et al.’s method. SK–N–MC cells in confluent culture plates were harvested using trypsin digestion and then centrifuged for 5 min at 1100 rpm. Pellets, either fresh or stored at −80 °C until the moment of use, were mechanically homogenized with Potter-Elvhejem in 20 mM Tris-HCl/0.5 mM EDTA. Supernatants from a 2000 rpm spin (10 min) were collected and re-centrifuged at 10,000 rpm for 30 min. Pellets were re-homogenized in 50 mM Tris-HCl/5 mM EDTA (pH 7.4). Membranes were incubated for 60 min at room temperature with 0.5 nM [^3H](R)-α-methylhistamine in 50 mM Tris-HCl/5 mM EDTA (pH 7.4) with or without competing ligands. Each concentration was tested in triplicate. Incubation was terminated by rapid filtration over Millipore (Darmstadt, Germany) AAWPO2500 filters followed by two washes with ice-cold buffer (50 mM Tris-HCl/5 mM EDTA). Filters retained radioactivity was determined by liquid scintillation counting (Ultima Gold XR Perkin Elmer (Waltham, MA, USA) scintillation liquid, Tri-Carb 2810 TR Perkin Elmer (Waltham, MA, USA) Liquid Scintillation Analyzer). […] Data are expressed as mean ± SEM of three independent experiments.

human MT2 receptor [2] = target: T2, human MT2 receptor (Homo sapiens, UniProt P49286); test: Human MT2 melatonin receptor binding assay, 2-[125I]iodomelatonin competition; conditions: cloned human MT2 in NIH3T3 cell membranes; 2-[125I]iodomelatonin 100 pM; N.A. = Not active up to 100 μM
T2 construct: expressed in transfected cells; host or cells: NIH3T3 fibroblast cells
T2 sequence (P49286 1-362): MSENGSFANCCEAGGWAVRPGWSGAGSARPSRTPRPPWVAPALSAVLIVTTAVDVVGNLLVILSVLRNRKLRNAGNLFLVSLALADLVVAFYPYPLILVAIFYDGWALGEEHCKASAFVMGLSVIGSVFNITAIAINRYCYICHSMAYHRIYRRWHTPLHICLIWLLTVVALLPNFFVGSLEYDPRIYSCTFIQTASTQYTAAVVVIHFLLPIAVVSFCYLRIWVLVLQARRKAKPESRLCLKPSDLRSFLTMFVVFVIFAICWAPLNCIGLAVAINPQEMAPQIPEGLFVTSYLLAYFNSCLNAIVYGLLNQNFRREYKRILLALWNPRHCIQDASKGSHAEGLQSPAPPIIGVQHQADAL
Protocol: (§1) Binding affinities were determined using 2-[^125I]iodomelatonin as the labeled ligand in competition experiments with cloned human MT1 and MT2 receptors expressed in NIH3T3 […] fibroblast cells. The characterization of NIH3T3 MT1 and MT2 cells was already described in detail. Membranes were incubated for 90 min at 37 °C in binding buffer (50 mM Tris/HCl, pH 7.4). The final membrane concentration was 5–10 μg of protein per tube. The membrane protein level was determined in accordance with a previously reported method. 2-[^125I]Iodomelatonin (100 pM) and different concentrations of the tested compounds were incubated with the receptor preparation for 90 min at 37 °C. […] The pKi values were calculated from the IC50 values according to the Cheng–Prusoff equation [51]. The pKi values are the mean of at least three independent determinations performed in duplicate.

human MT1 receptor [3] = target: T3, human MT1 receptor (Homo sapiens, UniProt P48039); test: Human MT1 melatonin receptor binding assay, 2-[125I]iodomelatonin competition; conditions: cloned human MT1 in NIH3T3 cell membranes; 2-[125I]iodomelatonin 100 pM; N.A. = Not active up to 100 μM
T3 construct: expressed in transfected cells; host or cells: NIH3T3 fibroblast cells
Protocol: as §1

human MT2 receptor [4] = target: T2, human MT2 receptor; test: [35S]GTPγS binding assay, human MT2 receptor; assay type: biochemical
Protocol: (§2) To determine the functional activity of compound 14d at MT1 and MT2 receptor subtypes, [^35S]GTPγS binding assays in NIH3T3 cells expressing human-cloned MT1 or MT2 receptors were performed. The amount of bound [^35S]GTPγS is proportional to the level of the analog-induced G protein activation and is related to the intrinsic activity of the compound under study. The detailed description and validation of this method were reported elsewhere. Membranes (15–25 μg of protein, final incubation volume 100 μL) were incubated at 30 °C for 30 min in the presence and absence 14d, in assay buffer consisting of [^35S]GTPγS (0.3–0.5 nM), GDP (50 μM), NaCl (100 mM), and MgCl2 (3 mM). Nonspecific binding was defined using GTPγS (10 μM). […] Basal stimulation is the amount of [^35S]GTPγS specifically bound in the absence of compounds and was taken as 100%. […] All of the measurements were performed in triplicate.

human MT1 receptor [5] = target: T3, human MT1 receptor; test: [35S]GTPγS binding assay, human MT1 receptor; assay type: biochemical
Protocol: as §2

T3 sequence (P48039 whole entry): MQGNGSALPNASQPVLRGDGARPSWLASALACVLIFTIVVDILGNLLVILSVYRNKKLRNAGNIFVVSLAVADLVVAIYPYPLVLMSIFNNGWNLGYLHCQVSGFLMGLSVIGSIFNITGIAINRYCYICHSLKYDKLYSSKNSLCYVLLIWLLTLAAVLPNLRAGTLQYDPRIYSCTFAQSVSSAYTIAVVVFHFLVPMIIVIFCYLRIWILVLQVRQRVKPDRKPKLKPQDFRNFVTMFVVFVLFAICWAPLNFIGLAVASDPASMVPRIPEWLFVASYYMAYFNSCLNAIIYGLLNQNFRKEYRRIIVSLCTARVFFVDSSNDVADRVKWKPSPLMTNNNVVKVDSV
T1 sequence (Q9Y5N1 whole entry): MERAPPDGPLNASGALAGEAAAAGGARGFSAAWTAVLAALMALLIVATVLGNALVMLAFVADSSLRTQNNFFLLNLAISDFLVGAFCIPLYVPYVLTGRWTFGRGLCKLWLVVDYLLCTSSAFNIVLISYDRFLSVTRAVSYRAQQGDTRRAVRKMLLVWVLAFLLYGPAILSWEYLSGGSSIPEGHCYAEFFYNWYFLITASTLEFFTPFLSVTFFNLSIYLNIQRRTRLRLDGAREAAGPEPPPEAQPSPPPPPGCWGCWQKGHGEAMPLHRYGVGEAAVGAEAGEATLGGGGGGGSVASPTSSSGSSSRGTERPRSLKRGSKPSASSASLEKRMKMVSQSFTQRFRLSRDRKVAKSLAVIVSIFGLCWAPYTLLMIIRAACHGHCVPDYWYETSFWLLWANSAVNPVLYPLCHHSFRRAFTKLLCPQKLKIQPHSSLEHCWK

Row | Substance | hH3 pKi [1] | hMT2 pKi (human MT2 receptor [2]) | hMT1 pKi (human MT1 receptor [3]) | functional behaviour at MT2 receptor in the GTPγS assay (human MT2 receptor [4]; GTPγS assay) | hMT2 IAR (relative intrinsic activity) (human MT2 receptor [4]; [35S]GTPγS binding, NIH3T3 cells expressing human MT2, relative to melatonin) | functional behaviour at MT1 receptor in the GTPγS assay (human MT1 receptor [5]; GTPγS assay) | hMT1 IAR (relative intrinsic activity) (human MT1 receptor [5]; [35S]GTPγS binding, NIH3T3 cells expressing human MT1, relative to melatonin)
1 | N-[2-({3-[3-(1H-Imidazol-4-yl)propoxy]phenyl}methylamino)ethyl]acetamide [Compound 14a] | 5.91 ± 0.01 | – | – | – | – | – | –
2 | N-[2-({3-[5-(1H-Imidazol-4-yl)pentyloxy]phenyl}methylamino)ethyl]acetamide [Compound 14c] | 6.28 ± 0.03 | 6.28 ± 0.10 | 6.09 ± 0.12 | – | – | – | –
3 | N-[2-({3-[6-(1H-Imidazol-4-yl)hexyloxy]phenyl}methylamino)ethyl]acetamide [Compound 14d] | 6.22 ± 0.09 | 6.76 ± 0.06 | 6.79 ± 0.01 | antagonist | −0.35 ± 0.19 | antagonist | −0.26 ± 0.09

Reference: paper PMC4200786, “Synthesis and Characterization of New Bivalent Agents as Melatonin- and Histamine H3-Ligands” (International Journal of Molecular Sciences, 2014)
